Experiments:
Type in all cases: cell-based, human
[1] = system: AP2α, AP1/2β, clathrin heavy chain (CHC), dynamin; assay: Immunoblot for cleavage of clathrin-dependent endocytosis machinery and caspases in cell lysates
Procedure: (b) Colo205 cells were treated as in (a) and analyzed by immunoblot for processing of specific components of various types of clathrin-associated endocytic trafficking.
Open arrows indicate cleavage products and solid arrows indicate full-length proteins.
(c) BJAB cells were treated with crosslinked Apo2L/TRAIL and processing of dynamin was determined by immunoblot.
The cells were analyzed by immunoblot for processing of caspase-8, caspase-9, caspase-3, and AP2α.
Human colorectal adenocarcinoma Colo205 cells human B cell lymphoma BJAB cells and human T cell carcinoma Jurkat wild type cells (A3 clone), FADD-deficient (E1) and caspase-8-deficient (I9.3) were cultured in RPMI 1640+10% fetal bovine serum (FBS)+2 mM glutamine+1000 U/ml Penicillin-Streptomycin (Life Technologies). Human cervical carcinoma HeLa-M cells human breast adenocarcinoma MCF7 and human colorectal adenocarcinomas HCT15, HCT8, SW948, Colo320, human fibrosarcoma HT180 (ATCC), HCT116 Bax(−/−), HCT116 Bax(+/−) were grown in 50:50 Dulbecco's modified Eagle's and FK12 medium+10% FBS+1000 U/ml Penicillin-Streptomycin. cDNA clones encoding temperature-sensitive dynamins were the G273D mutant and dominant negative K44A mutant dynamin-1 (Dyn^G273D and Dyn^K44A, respectively). Dyn^G273D was expressed from pHUSH-ProEx, a single retroviral plasmid tetracycline-inducible expression system constructed at Genentech. The cDNA was first cloned into a shuttle plasmid containing a CMV enhancer-promoter sequence with two copies of the tetracycline operator TetO2, then transferred via in vitro phage lamda-based recombination, or Gateway® technology (Invitrogen, Carlsbad), to a Moloney murine leukemia virus backbone vector in which the wild type Tet repressor is driven by a separate β-actin promoter and followed by an internal ribosomal entry sequence and puromycin selection cassette. Dyn^K44A was expressed from the 2-vector tetracycline-inducible retroviral expression system, pRevTet-On/pRev-Tre (Clontech), using serial infections. Retroviral vectors were transfected into Phoenix amphotropic Moloney Murine Leukemia Virus packaging cells using Lipofectamine 2000 […]. Retroviral particles were harvested and used in HeLa-M and BJAB cell infections as described previously (Simpson et al. J Cell Biol 137, 835-45, 1997). Dyn^G273 infected cells were puromycin selected (2-3 μg/ml) for 1-2 weeks and cloned either by manually picking individual HeLa-M colonies or by FACS sorting of resistant BJAB cells (gated for exclusion of propidium iodide) and single cell seeding in 96-well cell culture plates using an EPICS ELITE-ESP equipped with an Autoclone device (Coulter, Hialeah, Fla.). Cell clones were screened for uniformity of doxycycline inducible dynamin-1 expression by immunofluorescence microscopy. Dyn^K44A-infected cells were hygromycin B (400 μg/ml) and G418 (1 mg/ml) selected for 1-2 weeks. Induction with doxycycline (1 μg/ml) was performed at 32° C. for 72 hr as described previously (Damke et al. J Cell Biol 131, 69-80 1995). Vincristine sulfate (#T-117), Adriamycin.HCL (GR-319) were purchased from Biomol, tetracycline-free FBS from Hyclone, Puromycin from Clontech and Doxycyclin from Sigma. zVAD-fmk (asN-benzyloxycarbonyl-Val-Ala-Asp-fluoromethylketone) was obtained from MD Biosciences (#FK-009). […]

BJAB and Colo205 cells = assay: Transferrin (Tf) endocytosis rate by flow cytometry
Procedure: The cells were then equilibrated on ice for 30 min with Alexa-647-conjugated Tf (^647TF) and uptake at 37° C. was measured by flow cytometry. Each endocytosis rate was derived from the slope of the initial linear phase of a 4 min uptake kinetics plot (a, inset). […] Rates were normalized to the DMSO treated sample (±SEM).
Sedimented cells were resuspended in cold 2% paraformaldehyde/PBS and mean fluorescence intensity of 10,000 cells quantified with a Coulter Epics Elite-ESP flow cytometer (Hialeah, Fla.). Endocytic rates were determined from linear slopes of steady-state internal/surface plots (see, e.g., Wiley, H. S. et. al, J Biol Chem 257, 4222-9 (1982)). For temperature-shift experiments, ice binding incubations were avoided. Instead, cells were preconditioned for 20 min and maintained at 30° C. or 38° C. in binding medium, incubated an additional 0 (control) or 20 min with ^647Tf, chilled on ice for 30 min, and processed for flow cytometry to determine internal/surface ^647Tf ratios.

DR5 = assay: Temperature-shift DR5 uptake in DynG273D-transduced BJAB cells; conditions: doxycyclin-stimulated dynG273D expression, 20 min
Procedure: (a-d) Dyn^G273D-transduced HeLa-M cells were puromycin-selected, doxycycline-induced, pre-incubated for 20 min at the indicated temperature, then incubated another 20 min in the presence of Alexa-488 conjugated Tf (^488Tf). Cells were then processed for immunofluorescence microscopy using a dynamin-1 specific antibody. (e, f) Nontransduced (parental) or clonal Dyn1^G273D-transduced BJAB cells with (+dox) or without (no dox) doxycycline induction were assayed for ^488Tf or ^6475C7 uptake over a 20 min period at 30° C. (white bars) or 38° C. (black bars) by flow cytometry and means plotted (±SD).
Cells were acid stripped or not and quantified by flow cytometry.

DISC = DISC immunoprecipitation
Procedure: (a) BJAB cells were equilibrated with ^647Tf on ice, incubated for the indicated uptake interval at 37° C. or on ice, then fluorescence quantified by flow cytometry. […] DISC-associated FADD and caspase-8 were visualized by immunoblot. (c, d) Dyn^G273D-transduced BJAB cells were treated with buffer (No Dox) or doxycyline (Dox) and shifted to 38° C. for 20 min to inactivate dynamin. The cells were treated with crosslinked Apo2L/TRAIL for the indicated amounts of time and the DISC was immunoprecipitated. DISC-associated FADD and caspase-8 were visualized by immunoblot (c) or DISC-associated caspase-8 activity was measured as described previously (Sharp et al. J Biol Chem 280, 19401-409, 2005).
BJAB cells (1×10^7 per time point) were treated with Flag-Apo2L/TRAIL cross-linked by anti-FLAG M2 Abs, collected, lysed, immunoprecipitated and the DISC was analyzed as described (see, e.g., Kischkel, F. C. et al., Immunity 12, 611-20 (2000)).

caspase-3/7 = assay: Caspase-3/7 activity assay (Apo-One); conditions: after induction of dynG273D, 38° C. compared to 30° C.
Procedure: The caspase-3/7 assay was performed using Apo-One Homogenous Caspase-3/7 Assay (Promega). […] Lysates were incubated at room temperature for 1 hour before reading in a fluorometer at 485/530 […].

[2] = system: DynG273D-transduced BJAB cells; assay: Apoptosis assay (sub-diploid DNA, DNA fragmentation); conditions: induction of dynG273D and temperature-shift to 38° C.
Procedure: Cells were stained with propidium iodide after ethanol fixation and RNase treatment and the amount of sub-diploid DNA was analyzed by flow cytometry as previously described, using Expo32 software with an Epics XL.MCL cytometer (Coulter Beckman), (see, e.g., Nicholson, D. W., Cell Death Differ 6, 1028-42 (1999)).

[3] = MCF7 cells, deficient in caspase-3

- Ligand-stimulated caspase-3/7 enzymatic activity (caspase-3/7): substantial increase
Substance: Apo2L/TRAIL: Human recombinant soluble Apo2L/TRAIL in non-tagged (trimeric) or Flag-tagged, antibody-crosslinked versions; SEQ ID NO: 7
- Start of depletion of full-length dynamin after stimulation ([1]; BJAB cells, crosslinked Apo2L/TRAIL): ≤ 1 h
- Cleavage of AP2α isoform C ([1]; BJAB, Colo205, LS1034 and SW948 cells): did not induce cleavage of isoform C
- Caspase processing ([1]; Bax+/- HCT116 cells): stimulated processing of both caspase-8 and -3
- Caspase processing ([1]; Bax-/- HCT116 cells): only of caspase-8
- Proteolysis of structurally analogous adaptors (AP1α, AP3β and δ, AP4ε, β-COP, Sec23) ([1]; Colo205 cells, similar timeframe): did not induce proteolysis
- CHC cleavage [1, 3]: did not stimulate CHC cleavage
- Processing of caspase-8 and AP2α [1, 3]: relatively weak and slow processing of caspase-8 and AP2α
- Processing of AP2α and CHC ([1]; caspase-8-deficient or FADD-deficient mutant Jurkat cell lines): neither ligand stimulated processing of these targets
- Processing of caspase-8 and -3 and cleavage of AP2α, AP1/2β and CHC ([1]; several cancer cell lines, susceptible Colo205, BJAB, HeLa-M, not resistant HCT8): cleavage of AP2α, AP1/2β, and clathrin heavy-chain (CHC)
- Time within which caspase processing and AP2α, AP1/2β, CHC cleavage occurred ([1]; susceptible cell lines Colo205, BJAB, HeLa-M): ≤ 2 h
- Cleavage of AP2α and CHC ([1]; wt Jurkat T cells): induced cleavage of AP2α and CHC
- Inhibition of the rate of Tf endocytosis (BJAB and Colo205 cells; BJAB and Colo205 cells, pretreatment at 37° C.): 75-85%
- Reduction of Tf endocytosis rate (BJAB and Colo205 cells; Colo205 cells, extended exposure for 2 hr at 37° C.): 5 fold
- Ligand-induced DR5 uptake (DR5; 30° C.): ~25%
- Ligand-induced DR5 uptake (DR5; 38° C.): ~10%
- DISC assembly with Tf endocytosis blocked (DISC; BJAB cells chilled on ice): still recruited FADD and caspase-8 to their respective receptors and processed caspase-8
- DISC formation, caspase-8 processing and activity despite endocytosis inhibition (DISC; dynG273D BJAB cells, 38° C.): comparable DISC formation, caspase-8 processing, and caspase-8 activity in the DISC
- Apoptosis (cells with fragmented DNA) [2]: augmented apoptosis

Reference: US8198033B2, “Methods and materials for observing apoptosis” (Genentech, Inc., priority 2006, dated 2012)
